In data set [1] the target is T1, Kynurenine/alpha-aminoadipate aminotransferase, mitochondrial (Homo sapiens, UniProt Q8N5Z0). The data set is described as follows: Ratio of Kinact to Ki for KAT2 (unknown origin).
Target sequence in this assay (Q8N5Z0 30-425 limits assumed): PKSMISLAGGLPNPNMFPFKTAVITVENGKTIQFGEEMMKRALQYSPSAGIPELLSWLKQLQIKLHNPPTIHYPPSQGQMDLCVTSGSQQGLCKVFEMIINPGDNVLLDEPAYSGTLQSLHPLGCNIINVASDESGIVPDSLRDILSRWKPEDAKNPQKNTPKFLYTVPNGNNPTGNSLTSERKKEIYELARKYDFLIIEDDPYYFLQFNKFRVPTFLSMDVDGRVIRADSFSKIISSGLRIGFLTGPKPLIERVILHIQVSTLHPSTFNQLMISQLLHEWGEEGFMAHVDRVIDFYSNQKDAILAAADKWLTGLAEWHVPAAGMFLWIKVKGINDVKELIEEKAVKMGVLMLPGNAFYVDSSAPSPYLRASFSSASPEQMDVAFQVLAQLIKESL
The target of data set [2] is T1, Kynurenine/alpha-aminoadipate aminotransferase, mitochondrial. The data set is described as follows: Inhibition of KAT2 (unknown origin).
Data set [3] can be described thus: Oral bioavailability in dog. It counts as ADME, organism-based, Canis lupus familiaris. The conditions noted are these: in vivo.
The nature of data set [4]: Oral bioavailability in rat. It is filed as ADME, organism-based. Conditions: in vivo; call rule not given here.
Data set [5] is described as follows: Drug degradation assessed as metabolite formation by LC-MS/MS analysis. It counts as physicochemical.
Data set [6] can be described thus: Drug uptake in CD-1 mouse cerebral spinal fluid. It is filed as ADME, Cerebrospinal fluid. Conditions: in vivo.
The next data set has as its system Brain. The data set is described as follows: Drug uptake in CD-1 mouse brain. It counts as ADME, tissue-based. The conditions noted are these: in vivo.
In a further data set the test system is P-gp. The data set is described as follows: Efflux ratio in MDCK cells overexpressing Pgp. It counts as ADME, cell-based, Canis lupus familiaris. Conditions: dog, MDCK-MDR1.
Data set [7] can be described thus: Blood clearance in iv dosed dog. It counts as ADME, organism-based, Canis lupus familiaris.
Data set [8] can be described thus: Blood clearance in iv dosed rat. It counts as ADME, organism-based.
Data set [9] can be described thus: Half life in human hepatocytes. It counts as ADME, cell-based, Hepatocyte.
Data set [10] can be described thus: Half life in human liver microsomes. It is filed as ADME.

Data on three compounds can be found in ChEMBL document CHEMBL3217643, “Discovery of hydroxamate bioisosteres as KAT II inhibitors with improved oral bioavailability and pharmacokinetics” (Medchemcomm, 2013).

Molecules are shown by their SMILES. pIC50, pKi: −log10 of the molar value.

With `COc1cccc(Oc2ccc3c(c2)CC(N)c2nncn2-3)c1` (stereo not given), in [1], the Ratio is 2920 M⁻¹ s⁻¹. In data set [2], this compound gave a pIC50 of 6.70, a pKi of 7.09 and a Kinact of 0.0141 min⁻¹.

Turning to `N[C@H]1Cc2ccccc2N(O)C1=O`, the bioavailability in data set [3] stood at 18.5%; in [4], 10.8%.

Turning to `COc1cccc(Oc2ccc3c(c2)CC(N)c2n[nH]c(=O)n2-3)c1` (stereo not given), the Retention_time in data set [5] is 31.8 min. For the same compound, the Drug uptake entry (in data set [6]; in the data set on Brain) was “Active” in each case. Moreover, the efflux ratio in the data set with P-gp amounted to 1.51. Also, the figures for the bioavailability in [3] and in [4] were 100% and 40%, respectively. For the same compound, the results for the clearance in data set [7] and in [8] were 4.5 mL/min/kg and 78.4 mL/min/kg, respectively. Further, the results for the half-life in data set [9] and in [10] were 1.9 h and above 1.73 h, respectively. Moreover, the Ratio in data set [1] amounted to 5060 M⁻¹ s⁻¹. Besides, the pIC50 in [2] was 7.19. In [2], this compound gave a pKi of 8.29. Moreover, the Kinact in data set [2] is 0.0155 min⁻¹.
